Patent US20260297134A1, “CYCLIC PEPTIDES AS PET IMAGING AGENTS OF GRANZYME B” (Merck Sharp & Dohme LLC, priority 2023, published 2026)
Bridge positions count the residues as written; N and C are the ends. Square brackets hold non-standard residues; d marks the D form. Peptide text beside a SMILES is read from it. * marks the point of attachment. X1 = O=C(O)CN1CCN(CC(=O)O)CC(Cc2ccc(NC(=S)*)cc2)N(CC(=O)O)CC1; NMeF = CN[C@@H](Cc1ccccc1)C(=O)O; NMeA = CN[C@@H](C)C(=O)O

Biological target: human Granzyme B (hGranzyme B) (Homo sapiens, UniProt P10144)
Experiment: Surface Plasmon Resonance (SPR) binding to human Granzyme B
Conditions: Table 8, 25° C.
Protocol: All reagents and solvents were purchased from commercial sources and used “as is” unless otherwise noted. Reaction progress and synthetic intermediate analysis were assessed by LCMS (UV detection with ESI, APCI, or other mass detection) when applicable using a MeCN/water gradient with either TFA, formic acid, or NH4HCO3 modifier. Silica gel and reverse-phase flash column chromatography were conducted with commercially available pre-packed columns. Reverse-phase preparative HPLC purification was performed on preparative HPLC instruments with UV and MS detection using a MeCN/water gradient with either TFA, formic acid, or NH4OH modifier. Unless otherwise noted, all KD data presented in tables refers to the surface plasmon resonance assay that is described in the Biological Assay section.
The kinetics of test peptide binding to human Granzyme B (hGranzyme B) was determined by SPR. All experiments were performed at 25° C. using the Biacore 8k+ instrument (Cytiva, Marlborough, MA). The Biacore 8k+ Insight Evaluation Software Version 3.0 was used to fit the data with a 1:1 binding model to determine the association rate constant ka (M^−1s^−1, where “M” equals molar and “s” equals seconds) and the dissociation rate constant kd (s^−1). These rate constants were used to calculate the equilibrium dissociation constant, KD (M)=kd/ka. To measure the binding kinetics of peptides of interest, surfaces were prepared by a capture method to a Series S Streptavidin (SA) chip using a 1×HBS-EP+ running buffer (Cytiva). hGranzyme B was diluted to 10 μg/mL in 1×HBS-EP+ and flowed over spot 2 of each flow cell on the chip at a flow rate of 10 μl/min for 20 s to achieve a level of capture of ~1100 RU. An unmodified spot 1 of each flow cell was used as a matrix binding control or reference surface. Binding kinetics were measured using single cycle kinetics at 25° C. by injecting 5 concentrations with 3-fold serial dilutions of test peptides from […] to 1 μM. Compound dilutions were performed manually in a running buffer containing 1×HBS-EP+(Cytiva), and a final concentration of 2% DMSO. The interaction analyses over hGranzyme B, were performed using a 120 s association time and a 900 s dissociation time. All experiments were conducted at a flow rate of […] with a data collection rate of 10 Hz.
Peptide dilution series included 2 zero concentration points (no compound) which were averaged and subtracted from the peptide concentration injection as DMSO control responses. Binding data acquired from the reference surface (matrix binding control) were subtracted from the binding data for hGranzyme B surface on the chip to determine specific binding. Next, the association phase data were solvent corrected to account for any signal fluctuation throughout the experiment due to subtle DMSO concentration differences. Corrected response data were analyzed using the Biacore 8k+ Evaluation Software Version 3.0 according to the manufacturer. SPR data for representative compounds of the disclosure are found in Table 8.

human Granzyme B (hGranzyme B), sequence (P10144 21-247): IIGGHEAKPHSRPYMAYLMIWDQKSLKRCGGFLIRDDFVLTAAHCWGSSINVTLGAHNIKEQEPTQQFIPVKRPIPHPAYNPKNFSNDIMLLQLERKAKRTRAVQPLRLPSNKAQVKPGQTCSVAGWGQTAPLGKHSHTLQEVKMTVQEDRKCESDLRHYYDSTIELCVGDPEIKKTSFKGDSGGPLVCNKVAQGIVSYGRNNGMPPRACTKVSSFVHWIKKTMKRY

Row | Kd [nM] | SMILES
1 | 3.7 | CC(C)[C@@H]1NC(=O)[C@H](CC(=O)O)NC(=O)[C@H](Cc2ccc(O)cc2)NC(=O)[C@H](Cc2ccc(O)cc2)NC(=O)[C@H](Cc2ccccc2)N(C)C(=O)[C@H](Cc2ccccc2)N(C)C(=O)[C@H](Cc2ccccc2)NC(=O)CSC[C@@H](C(=O)NCC(=O)NCC(=O)N[C@@H](CCCCNC(=S)Nc2ccc(CC3CN(CC(=O)O)CCN(CC(=O)O)CCN3CC(=O)O)cc2)C(N)=O)NC(=O)[C@H](Cc2c[nH]cn2)NC(=O)[C@H](Cc2ccccc2)N(C)C(=O)[C@H](Cc2ccc(O)cc2)NC(=O)[C@H](C(C)C)NC(=O)[C@H](CC(=O)O)NC(=O)[C@H](C)NC(=O)[C@H](CC(=O)O)NC1=O (stereo partly drawn) [Compound 8a, *F.NMeF.NMeF.Y.Y.D.V.D.A.D.V.Y.NMeF.H.*C.G.G.K(NOTA)-NH2] ({CH2CO}-F[NMeF][NMeF]YYDVDADVY[NMeF]HCGGK(X1)-NH2; thioether N-15)
2 | 1 | CC(C)[C@@H]1NC(=O)[C@H](CC(=O)O)NC(=O)[C@H](Cc2ccc(O)cc2)NC(=O)[C@H](Cc2ccc(O)cc2)NC(=O)[C@H](Cc2ccccc2)N(C)C(=O)[C@H](Cc2ccccc2)N(C)C(=O)[C@H](Cc2ccccc2)NC(=O)CSC[C@@H](C(=O)NCC(=O)NCC(=O)N[C@@H](CCCCNC(=S)Nc2ccc(CC3CN(CC(=O)O)CCN(CC(=O)O)CCN3CC(=O)O)cc2)C(N)=O)NC(=O)[C@H](Cc2c[nH]cn2)NC(=O)[C@H](Cc2ccccc2)N(C)C(=O)[C@H](Cc2ccc(O)cc2)NC(=O)[C@H](C(C)C)NC(=O)[C@H](CC(=O)O)NC(=O)[C@H](C(C)C)NC(=O)[C@H](CC(=O)O)NC1=O (stereo partly drawn) [Compound 3a, *F.NMeF.NMeF.Y.Y.D.V.D.V.D.V.Y.NMeF.H.*C.G.G.K(NOTA)-NH2] ({CH2CO}-F[NMeF][NMeF]YYDVDVDVY[NMeF]HCGGK(X1)-NH2; thioether N-15)
3 | 0.1 | CC(C)[C@@H]1NC(=O)[C@H](CC(=O)O)NC(=O)[C@H](Cc2ccc(O)cc2)NC(=O)[C@H](Cc2ccc(O)cc2)NC(=O)[C@H](Cc2ccccc2)N(C)C(=O)[C@H](Cc2ccccc2)N(C)C(=O)[C@H](Cc2ccccc2)NC(=O)CSC[C@@H](C(=O)NCC(=O)N[C@@H](CCCCN)C(=O)N[C@@H](CCCCN)C(N)=O)NC(=O)[C@H](Cc2c[nH]cn2)NC(=O)[C@H](Cc2ccccc2)N(C)C(=O)[C@H](Cc2ccc(O)cc2)NC(=O)[C@H](C(C)C)NC(=O)[C@H](CC(=O)O)NC(=O)[C@H](C(C)C)NC(=O)[C@H](CC(=O)O)NC1=O [Compound 13a, *F.NMeF.NMeF.Y.Y.D.V.D.V.D.V.Y.NMeF.H.*C.G.K.K-NH2] ({CH2CO}-F[NMeF][NMeF]YYDVDVDVY[NMeF]HCGKK-NH2; thioether N-15)
4 | 199 | CC(C)[C@@H]1NC(=O)[C@H](CC(=O)O)NC(=O)[C@H](Cc2ccc(O)cc2)NC(=O)[C@H](Cc2ccc(O)cc2)NC(=O)[C@H](Cc2ccccc2)N(C)C(=O)[C@H](C)N(C)C(=O)[C@H](Cc2ccccc2)NC(=O)CSC[C@@H](C(=O)NCC(N)=O)NC(=O)[C@H](Cc2c[nH]cn2)NC(=O)[C@H](Cc2ccccc2)N(C)C(=O)[C@H](Cc2ccc(O)cc2)NC(=O)[C@H](C(C)C)NC(=O)[C@H](CC(=O)O)NC(=O)[C@H](C(C)C)NC(=O)[C@H](CC(=O)O)NC1=O [Compound 25a, *F.NMeA.NMeF.Y.Y.D.V.D.V.D.V.Y.NMeF.H.*C.G-NH2] ({CH2CO}-F[NMeA][NMeF]YYDVDVDVY[NMeF]HCG-NH2; thioether N-15)
5 | 1.1 | CC(C)[C@@H]1NC(=O)[C@H](CC(=O)O)NC(=O)[C@H](Cc2ccc(O)cc2)NC(=O)[C@H](Cc2ccc(O)cc2)NC(=O)[C@H](Cc2ccccc2)N(C)C(=O)[C@H](Cc2ccccc2)N(C)C(=O)[C@H](Cc2ccccc2)NC(=O)CSC[C@@H](C(=O)NCC(=O)NCC(=O)N[C@@H](CCCCN)C(N)=O)NC(=O)[C@H](Cc2c[nH]cn2)NC(=O)[C@H](Cc2ccccc2)N(C)C(=O)[C@H](Cc2ccc(O)cc2)NC(=O)[C@H](C(C)C)NC(=O)[C@H](CC(=O)O)NC(=O)[C@H](C(C)C)NC(=O)[C@H](CC(=O)O)NC1=O [Compound 2a, *F.NMeF.NMeF.Y.Y.D.V.D.V.D.V.Y.NMeF.H.*C.G.G.K-NH2] ({CH2CO}-F[NMeF][NMeF]YYDVDVDVY[NMeF]HCGGK-NH2; thioether N-15)
6 | 188 | CC(C)[C@@H]1NC(=O)[C@H](CC(=O)O)NC(=O)[C@H](Cc2ccc(O)cc2)NC(=O)[C@H](Cc2ccc(O)cc2)NC(=O)[C@H](C)NC(=O)[C@H](Cc2ccccc2)N(C)C(=O)[C@H](Cc2ccccc2)NC(=O)CSC[C@@H](C(=O)NCC(=O)NCC(=O)N[C@@H](CCCCN)C(N)=O)NC(=O)[C@H](Cc2c[nH]cn2)NC(=O)[C@H](Cc2ccccc2)N(C)C(=O)[C@H](Cc2ccc(O)cc2)NC(=O)[C@H](C(C)C)NC(=O)[C@H](CC(=O)O)NC(=O)[C@H](C(C)C)NC(=O)[C@H](CC(=O)O)NC1=O [Compound 9a, *F.NMeF.A.Y.Y.D.V.D.V.D.V.Y.NMeF.H.*C.G.G.K-NH2] ({CH2CO}-F[NMeF]AYYDVDVDVY[NMeF]HCGGK-NH2; thioether N-15)
7 | 5.4 | CC(C)[C@@H]1NC(=O)[C@H](CC(=O)O)NC(=O)[C@H](Cc2ccc(O)cc2)NC(=O)[C@H](Cc2ccc(O)cc2)NC(=O)[C@H](C)N(C)C(=O)[C@H](Cc2ccccc2)N(C)C(=O)[C@H](Cc2ccccc2)NC(=O)CSC[C@@H](C(=O)NCC(N)=O)NC(=O)[C@H](Cc2c[nH]cn2)NC(=O)[C@H](Cc2ccccc2)N(C)C(=O)[C@H](Cc2ccc(O)cc2)NC(=O)[C@H](C(C)C)NC(=O)[C@H](CC(=O)O)NC(=O)[C@H](C(C)C)NC(=O)[C@H](CC(=O)O)NC1=O [Compound 24a, *F.NMeF.NMeA.Y.Y.D.V.D.V.D.V.Y.NMeF.H.*C.G-NH2] ({CH2CO}-F[NMeF][NMeA]YYDVDVDVY[NMeF]HCG-NH2; thioether N-15)
8 | 165 | CC(C)[C@@H]1NC(=O)[C@H](CC(=O)O)NC(=O)[C@H](Cc2ccc(O)cc2)NC(=O)[C@H](Cc2ccc(O)cc2)NC(=O)[C@H](Cc2ccccc2)N(C)C(=O)[C@H](Cc2ccccc2)N(C)C(=O)[C@H](C)NC(=O)CSC[C@@H](C(=O)NCC(N)=O)NC(=O)[C@H](Cc2c[nH]cn2)NC(=O)[C@H](Cc2ccccc2)N(C)C(=O)[C@H](Cc2ccc(O)cc2)NC(=O)[C@H](C(C)C)NC(=O)[C@H](CC(=O)O)NC(=O)[C@H](C(C)C)NC(=O)[C@H](CC(=O)O)NC1=O [Compound 19a, *A.NMeF.NMeF.Y.Y.D.V.D.V.D.V.Y.NMeF.H.*C.G-NH2] ({CH2CO}-A[NMeF][NMeF]YYDVDVDVY[NMeF]HCG-NH2; thioether N-15)
9 | 0.8 | CC(C)[C@@H]1NC(=O)[C@H](CC(=O)O)NC(=O)[C@H](Cc2ccc(O)cc2)NC(=O)[C@H](Cc2ccc(O)cc2)NC(=O)[C@H](Cc2ccccc2)N(C)C(=O)[C@H](Cc2ccccc2)N(C)C(=O)[C@H](Cc2ccccc2)NC(=O)CSC[C@@H](C(=O)NCC(N)=O)NC(=O)[C@H](C)NC(=O)[C@H](Cc2ccccc2)N(C)C(=O)[C@H](Cc2ccc(O)cc2)NC(=O)[C@H](C(C)C)NC(=O)[C@H](CC(=O)O)NC(=O)[C@H](C(C)C)NC(=O)[C@H](CC(=O)O)NC1=O [Compound 14a, *F.NMeF.NMeF.Y.Y.D.V.D.V.D.V.Y.NMeF.A.*C.G-NH2] ({CH2CO}-F[NMeF][NMeF]YYDVDVDVY[NMeF]ACG-NH2; thioether N-15)
